Laboratory results: ChEMBL document CHEMBL4507326, “Data for DCP probe TP-030-2” (2021)
pIC50: −log10 of the molar value.

Columns and labels:
[1] = target: Epidermal growth factor receptor (Homo sapiens, UniProt P00533); test: Inhibition of Epidermal Growth Factor (EGF) at 10 µM in the Eurofins-Panlabs radioligand binding assay (Eurofins_assay_225510); conditions: Compound concentration 10.0 uM
[2] = target: Acetylcholine receptor subunit alpha (Homo sapiens) (UniProt P02708); test: Inhibition of Nicotinic Acetylcholine D1, Bungarotoxin at 10 µM in the Eurofins-Panlabs radioligand binding assay (Eurofins_assay_258700); conditions: Compound concentration 10.0 uM
[3] = target: 5-hydroxytryptamine receptor 3A (Homo sapiens) (UniProt P46098); test: Inhibition of Serotonin (5-Hydroxytryptamine) 5-HT3 at 10 µM in the Eurofins-Panlabs radioligand binding assay (Eurofins_assay_271910); set-up: ligand concentration 0.69 nM; conditions: Compound concentration 10.0 uM
5-hydroxytryptamine receptor 3A (Homo sapiens), sequence (P46098 whole entry): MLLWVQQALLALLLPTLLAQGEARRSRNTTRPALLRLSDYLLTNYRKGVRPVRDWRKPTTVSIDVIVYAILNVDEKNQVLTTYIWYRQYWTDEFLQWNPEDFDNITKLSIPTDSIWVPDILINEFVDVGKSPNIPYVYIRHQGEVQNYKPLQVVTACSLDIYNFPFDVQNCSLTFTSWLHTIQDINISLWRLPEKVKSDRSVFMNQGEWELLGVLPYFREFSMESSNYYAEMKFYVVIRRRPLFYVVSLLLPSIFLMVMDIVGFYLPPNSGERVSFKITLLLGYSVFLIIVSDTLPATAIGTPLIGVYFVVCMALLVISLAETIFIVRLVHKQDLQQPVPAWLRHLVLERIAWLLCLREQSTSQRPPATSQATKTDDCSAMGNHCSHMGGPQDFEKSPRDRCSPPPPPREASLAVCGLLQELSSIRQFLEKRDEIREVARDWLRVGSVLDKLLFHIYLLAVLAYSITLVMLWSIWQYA

[4] = target: Tyrosine-protein kinase ABL2 (Homo sapiens, UniProt P42684); test: Arg(ABL2LGF1) Takeda global kinase panel
[5] = target: Beta-adrenergic receptor kinase 1 (Homo sapiens, UniProt P25098); test: BARK1 [GRK2(ADR1LGG5)] Takeda global kinase panel
Beta-adrenergic receptor kinase 1, sequence (P25098 whole entry): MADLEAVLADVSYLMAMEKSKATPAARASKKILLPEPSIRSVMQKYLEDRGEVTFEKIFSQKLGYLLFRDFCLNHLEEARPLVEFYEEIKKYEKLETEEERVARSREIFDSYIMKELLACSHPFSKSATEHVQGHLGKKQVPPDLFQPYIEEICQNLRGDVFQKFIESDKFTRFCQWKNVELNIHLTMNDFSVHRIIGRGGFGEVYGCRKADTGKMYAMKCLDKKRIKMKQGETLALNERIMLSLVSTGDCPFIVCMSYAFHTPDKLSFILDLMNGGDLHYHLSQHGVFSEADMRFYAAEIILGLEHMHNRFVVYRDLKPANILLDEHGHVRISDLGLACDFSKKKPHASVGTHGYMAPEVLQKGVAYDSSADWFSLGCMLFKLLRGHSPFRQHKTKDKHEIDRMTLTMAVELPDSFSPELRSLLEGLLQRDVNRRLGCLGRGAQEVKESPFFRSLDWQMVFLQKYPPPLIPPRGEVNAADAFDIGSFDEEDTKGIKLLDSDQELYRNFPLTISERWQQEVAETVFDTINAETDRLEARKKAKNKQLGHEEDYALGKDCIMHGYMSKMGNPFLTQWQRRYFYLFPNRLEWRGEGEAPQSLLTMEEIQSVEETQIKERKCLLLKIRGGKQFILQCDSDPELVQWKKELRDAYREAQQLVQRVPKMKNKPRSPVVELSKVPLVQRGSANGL

[6] = target: RAC-beta serine/threonine-protein kinase (Homo sapiens, UniProt P31751); test: Akt2 [PKBbeta(AKT2CGY1)] Takeda global kinase panel
[7] = target: RAC-gamma serine/threonine-protein kinase (Homo sapiens, UniProt Q9Y243); test: Akt3 [PKBgamma(AKT3LGY1)] Takeda global kinase panel
[8] = target: Tyrosine-protein kinase Blk (Homo sapiens, UniProt P51451); test: BLK(BLK1CGF1) Takeda global kinase panel
[9] = target: Calcium/calmodulin-dependent protein kinase type 1G (Homo sapiens, UniProt Q96NX5); test: CaMK1gamma(CA1GLGN1) Takeda global kinase panel
[10] = target: Casein kinase II subunit alpha' (Homo sapiens, UniProt P19784); test: CK2alpha2(C2A2LGK1) Takeda global kinase panel
Casein kinase II subunit alpha', sequence (P19784 whole entry): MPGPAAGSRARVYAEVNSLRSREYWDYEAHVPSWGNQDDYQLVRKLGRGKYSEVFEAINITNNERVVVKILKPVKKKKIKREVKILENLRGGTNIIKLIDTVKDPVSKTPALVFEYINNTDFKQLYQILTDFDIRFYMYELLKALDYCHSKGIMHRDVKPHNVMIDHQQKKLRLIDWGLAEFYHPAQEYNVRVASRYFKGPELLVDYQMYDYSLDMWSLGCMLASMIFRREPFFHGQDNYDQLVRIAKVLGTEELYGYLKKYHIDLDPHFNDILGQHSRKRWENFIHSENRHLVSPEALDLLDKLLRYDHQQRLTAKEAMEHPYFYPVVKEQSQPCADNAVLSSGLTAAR

[11] = target: Serine/threonine-protein kinase DCLK3 (Homo sapiens, UniProt Q9C098); test: DCAMKL3(DCL3LGP1) Takeda global kinase panel
[12] = target: Dual specificity tyrosine-phosphorylation-regulated kinase 1A (Homo sapiens, UniProt Q13627); test: DYRK1A(DY1ALGP1) Takeda global kinase panel
[13] = target: Vascular endothelial growth factor receptor 1 (Homo sapiens, UniProt P17948); test: FLT1(FLT1LGC5) Takeda global kinase panel
[14] = target: Glycogen synthase kinase-3 beta (Homo sapiens, UniProt P49841); test: GSK3beta(GS3BLGM1) Takeda global kinase panel
[15] = target: Homeodomain-interacting protein kinase 1 (Homo sapiens, UniProt Q86Z02); test: HIPK1(HIP1LGF1) Takeda global kinase panel
[16] = target: Inhibitor of nuclear factor kappa-B kinase subunit epsilon (Homo sapiens, UniProt Q14164); test: IKKepsilon(IKBELGY1) Takeda global kinase panel
Insulin receptor = Insulin receptor (Homo sapiens, UniProt P06213); test: InSR(INSRLGY1) Takeda global kinase panel
[17] = target: Insulin receptor-related protein (Homo sapiens, UniProt P14616); test: IRR(INSSLGF1) Takeda global kinase panel
LIM domain kinase 2 = LIM domain kinase 2 (Homo sapiens, UniProt P53671); test: LIMK2(LIM2LGV1) Takeda global kinase panel
[18] = target: Mitogen-activated protein kinase kinase kinase 12 (Homo sapiens, UniProt Q12852); test: DLK(M312CGY1) Takeda global kinase panel
Mitogen-activated protein kinase kinase kinase 12, sequence (Q12852 whole entry): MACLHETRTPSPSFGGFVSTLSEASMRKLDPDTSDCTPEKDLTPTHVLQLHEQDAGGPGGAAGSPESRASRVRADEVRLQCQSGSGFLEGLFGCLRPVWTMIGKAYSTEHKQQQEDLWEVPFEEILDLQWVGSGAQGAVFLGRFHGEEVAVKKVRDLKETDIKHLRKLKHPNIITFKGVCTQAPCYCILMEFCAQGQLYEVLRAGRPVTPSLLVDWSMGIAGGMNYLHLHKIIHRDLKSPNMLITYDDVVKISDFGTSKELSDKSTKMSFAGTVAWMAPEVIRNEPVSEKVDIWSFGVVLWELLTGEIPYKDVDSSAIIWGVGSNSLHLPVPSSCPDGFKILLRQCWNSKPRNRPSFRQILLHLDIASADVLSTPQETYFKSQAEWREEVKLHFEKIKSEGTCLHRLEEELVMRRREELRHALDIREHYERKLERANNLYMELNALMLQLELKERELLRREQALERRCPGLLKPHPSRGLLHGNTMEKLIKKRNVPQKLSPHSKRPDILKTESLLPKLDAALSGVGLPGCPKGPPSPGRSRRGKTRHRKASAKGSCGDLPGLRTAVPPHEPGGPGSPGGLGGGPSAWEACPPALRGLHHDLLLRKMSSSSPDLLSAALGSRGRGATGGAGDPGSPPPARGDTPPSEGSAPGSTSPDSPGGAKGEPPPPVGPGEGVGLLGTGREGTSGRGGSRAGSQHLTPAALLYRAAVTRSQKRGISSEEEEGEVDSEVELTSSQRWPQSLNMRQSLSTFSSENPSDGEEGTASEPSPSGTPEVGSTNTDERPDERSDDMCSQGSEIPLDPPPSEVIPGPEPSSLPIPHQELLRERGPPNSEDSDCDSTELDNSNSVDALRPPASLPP

[19] = target: Mitogen-activated protein kinase kinase kinase kinase 5 (Homo sapiens, UniProt Q9Y4K4); test: KHS1(M4K5LGY1) Takeda global kinase panel
[20] = target: Mitogen-activated protein kinase 9 (Homo sapiens, UniProt P45984); test: JNK2(MAP9LGF1) Takeda global kinase panel
[21] = target: Serine/threonine-protein kinase Nek11 (Homo sapiens, UniProt Q8NG66); test: Nek11(NE11LGRI) Takeda global kinase panel
[22] = target: Serine/threonine-protein kinase Nek9 (Homo sapiens, UniProt Q8TD19); test: Nek9(NEK9LGF1) Takeda global kinase panel
[23] = target: Serine/threonine-protein kinase NLK (Homo sapiens, UniProt Q9UBE8); test: NLK(NLK1LGI5) Takeda global kinase panel
[24] = target: cAMP-dependent protein kinase catalytic subunit alpha (Homo sapiens, UniProt P17612); test: PKAalpha(PRCALGH1) Takeda global kinase panel
[25] = target: Protein kinase C iota type (Homo sapiens, UniProt P41743); test: PKCiota(PRKILGRD) Takeda global kinase panel
[26] = target: Serine/threonine-protein kinase D1 (Homo sapiens, UniProt Q15139); test: PKD1(PRD1LHY1) Takeda global kinase panel
[27] = target: Receptor-interacting serine/threonine-protein kinase 2 (Homo sapiens, UniProt O43353); test: RIPK2(RIP2LGI1) Takeda global kinase panel
[28] = target: Proto-oncogene tyrosine-protein kinase ROS (Homo sapiens, UniProt P08922); test: Ros(ROS1PHY1) Takeda global kinase panel
[29] = target: Serine/threonine-protein kinase 3 (Homo sapiens, UniProt Q13188); test: MST2(STK3LGF1) Takeda global kinase panel
[30] = target: Tyrosine-protein kinase SYK (Homo sapiens, UniProt P43405); test: Syk(SYK1LHY1) Takeda global kinase panel
[31] = target: Non-receptor tyrosine-protein kinase TNK1 (Homo sapiens, UniProt Q13470); test: Tnk1(TNK1LGY1) Takeda global kinase panel
Non-receptor tyrosine-protein kinase TNK1, sequence (Q13470 whole entry): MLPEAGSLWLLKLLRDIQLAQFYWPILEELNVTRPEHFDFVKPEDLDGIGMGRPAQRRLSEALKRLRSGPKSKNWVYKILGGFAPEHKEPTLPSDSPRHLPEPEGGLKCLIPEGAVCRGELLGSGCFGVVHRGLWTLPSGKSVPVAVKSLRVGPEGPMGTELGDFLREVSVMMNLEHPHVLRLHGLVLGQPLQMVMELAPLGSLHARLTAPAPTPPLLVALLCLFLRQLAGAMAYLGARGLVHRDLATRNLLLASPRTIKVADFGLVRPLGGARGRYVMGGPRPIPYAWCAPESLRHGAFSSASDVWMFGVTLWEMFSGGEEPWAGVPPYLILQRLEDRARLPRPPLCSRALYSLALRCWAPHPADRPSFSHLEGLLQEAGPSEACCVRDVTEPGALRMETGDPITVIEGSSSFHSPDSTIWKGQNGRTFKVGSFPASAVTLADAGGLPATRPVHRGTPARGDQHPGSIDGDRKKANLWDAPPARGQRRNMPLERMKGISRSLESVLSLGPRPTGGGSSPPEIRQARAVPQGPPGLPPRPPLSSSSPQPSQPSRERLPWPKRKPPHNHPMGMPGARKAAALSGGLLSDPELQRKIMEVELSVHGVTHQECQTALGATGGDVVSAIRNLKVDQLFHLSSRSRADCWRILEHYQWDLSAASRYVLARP

[32] = target: Serine/threonine-protein kinase TNNI3K (Homo sapiens, UniProt Q59H18); test: HH498(TNNILGY1) Takeda global kinase panel
[33] = target: Wee1-like protein kinase 2 (Homo sapiens, UniProt P0C1S8); test: Wee1B(WE1BLGF1) Takeda global kinase panel
[34] = target: Uncharacterized serine/threonine-protein kinase SBK3 (Homo sapiens, UniProt P0C264); test: SgK110(SG10LGF1) Takeda global kinase panel
Uncharacterized serine/threonine-protein kinase SBK3, sequence (P0C264 whole entry): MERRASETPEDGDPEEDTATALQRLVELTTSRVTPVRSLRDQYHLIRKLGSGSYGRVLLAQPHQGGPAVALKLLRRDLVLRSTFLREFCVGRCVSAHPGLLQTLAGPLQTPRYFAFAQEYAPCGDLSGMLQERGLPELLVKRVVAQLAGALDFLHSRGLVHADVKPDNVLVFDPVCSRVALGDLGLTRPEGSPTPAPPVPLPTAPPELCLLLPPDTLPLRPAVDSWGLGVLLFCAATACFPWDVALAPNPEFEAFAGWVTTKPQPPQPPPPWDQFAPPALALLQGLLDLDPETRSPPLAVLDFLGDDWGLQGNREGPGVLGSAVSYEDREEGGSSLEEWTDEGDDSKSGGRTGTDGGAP

[35] = target: 5-hydroxytryptamine receptor 3A (Homo sapiens) (UniProt P46098); conditions: Compound concentration 10.0 uM
[36] = target: Mu-type opioid receptor (Homo sapiens) (UniProt P35372); conditions: Compound concentration 10.0 uM
Mu-type opioid receptor (Homo sapiens), sequence (P35372 whole entry): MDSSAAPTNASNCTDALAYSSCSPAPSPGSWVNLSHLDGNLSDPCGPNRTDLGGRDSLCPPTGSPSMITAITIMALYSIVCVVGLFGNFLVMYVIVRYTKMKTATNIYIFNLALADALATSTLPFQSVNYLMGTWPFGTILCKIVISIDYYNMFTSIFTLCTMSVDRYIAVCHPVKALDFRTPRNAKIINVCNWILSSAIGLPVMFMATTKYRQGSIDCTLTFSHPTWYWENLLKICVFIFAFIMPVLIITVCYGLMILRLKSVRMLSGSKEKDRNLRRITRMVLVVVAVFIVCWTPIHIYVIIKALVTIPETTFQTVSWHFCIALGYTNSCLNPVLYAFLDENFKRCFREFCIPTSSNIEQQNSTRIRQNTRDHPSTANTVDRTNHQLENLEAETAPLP

[37] = target: Delta-type opioid receptor (Homo sapiens) (UniProt P41143); conditions: Compound concentration 10.0 uM
[38] = target: GABA-A receptor; anion channel (Rattus norvegicus) (UniProt O09028+P15431+P18506+P18508+P19969+P20236+P23574+P23576+P28471+P28473+P30191+P62813+P63079+P63138+Q91ZM7+Q9ES14); conditions: Compound concentration 10.0 uM
[39] = target: D(2) dopamine receptor (Homo sapiens) (UniProt P14416); conditions: Compound concentration 10.0 uM
Oryctolagus cuniculus = organism: Oryctolagus cuniculus; conditions: Compound concentration 10.0 uM

Epidermal growth factor receptor, sequence (P00533 whole entry): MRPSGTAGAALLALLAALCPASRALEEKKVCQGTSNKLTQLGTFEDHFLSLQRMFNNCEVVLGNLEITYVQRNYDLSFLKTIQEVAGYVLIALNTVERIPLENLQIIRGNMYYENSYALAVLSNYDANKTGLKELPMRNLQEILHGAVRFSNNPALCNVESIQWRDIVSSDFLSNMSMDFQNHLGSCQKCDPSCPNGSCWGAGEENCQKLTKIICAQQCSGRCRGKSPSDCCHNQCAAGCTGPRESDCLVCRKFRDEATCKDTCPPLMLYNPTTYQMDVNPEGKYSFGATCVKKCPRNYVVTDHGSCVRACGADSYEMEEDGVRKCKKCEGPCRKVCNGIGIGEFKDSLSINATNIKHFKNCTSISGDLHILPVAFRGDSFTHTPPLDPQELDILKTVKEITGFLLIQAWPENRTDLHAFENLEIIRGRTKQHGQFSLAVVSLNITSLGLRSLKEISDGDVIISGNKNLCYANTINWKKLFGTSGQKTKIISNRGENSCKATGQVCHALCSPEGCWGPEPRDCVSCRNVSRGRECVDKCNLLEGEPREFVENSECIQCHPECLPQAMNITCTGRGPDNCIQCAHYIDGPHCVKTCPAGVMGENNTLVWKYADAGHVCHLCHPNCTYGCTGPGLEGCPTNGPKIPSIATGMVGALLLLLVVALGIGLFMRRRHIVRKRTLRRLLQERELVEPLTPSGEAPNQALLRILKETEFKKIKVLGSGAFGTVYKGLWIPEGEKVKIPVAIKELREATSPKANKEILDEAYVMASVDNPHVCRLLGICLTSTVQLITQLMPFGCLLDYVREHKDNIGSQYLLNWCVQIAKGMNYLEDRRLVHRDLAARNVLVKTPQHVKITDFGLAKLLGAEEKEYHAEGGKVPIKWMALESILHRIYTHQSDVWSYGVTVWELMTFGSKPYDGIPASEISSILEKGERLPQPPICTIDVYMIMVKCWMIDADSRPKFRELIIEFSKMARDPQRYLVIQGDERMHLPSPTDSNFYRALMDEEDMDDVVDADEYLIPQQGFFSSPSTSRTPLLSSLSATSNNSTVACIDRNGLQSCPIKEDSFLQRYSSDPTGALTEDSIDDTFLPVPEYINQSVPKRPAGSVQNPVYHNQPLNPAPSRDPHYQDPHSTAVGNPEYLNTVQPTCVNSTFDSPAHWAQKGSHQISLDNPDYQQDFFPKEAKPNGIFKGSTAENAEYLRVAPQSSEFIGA

CN1C(=O)[C@@H](N2CCc3c(nn(Cc4ccccc4)c3Br)C2=O)COc2ccccc21 [TP-030-2]
inhibition [1]: 2%
inhibition [2]: -2%
inhibition [3]: 4%
pIC50 [4]: 6.00
pIC50 [5]: 6.00
pIC50 [6]: 6.00
pIC50 [7]: 6.00
pIC50 [8]: 6.00
pIC50 [9]: 6.00
pIC50 [10]: 6.00
pIC50 [11]: 6.00
pIC50 [12]: 6.00
pIC50 [13]: 6.00
pIC50 [14]: 6.00
pIC50 [15]: 6.00
pIC50 [16]: 6.00
pIC50 (Insulin receptor): 6.00
pIC50 [17]: 6.00
pIC50 (LIM domain kinase 2): 6.00
pIC50 [18]: 6.00
pIC50 [19]: 6.00
pIC50 [20]: 6.00
pIC50 [21]: 6.00
pIC50 [22]: 6.00
pIC50 [23]: 6.00
pIC50 [24]: 6.00
pIC50 [25]: 6.00
pIC50 [26]: 6.00
pIC50 [27]: 6.00
pIC50 [28]: 6.00
pIC50 [29]: 6.00
pIC50 [30]: 6.00
pIC50 [31]: 6.00
pIC50 [32]: 6.00
pIC50 [33]: 6.00
pIC50 [34]: 6.00
inhibition [35]: 37.7%
inhibition [36]: 14.6%
inhibition [37]: 30.1%
inhibition [38]: 8.81%
inhibition [39]: 3%
inhibition (Oryctolagus cuniculus): -4%
